Like-named read-outs stand apart in the source and are kept apart here. Some results are limits rather than exact numbers.

For assay [1], the target named is Full length SHP2 protein (Recombinant Human SHP-2) (Homo sapiens, UniProt Q06124). Description: SHP2 biochemical assay (DiFMUP substrate, activating peptide IRSI_2pY). The conditions noted are these: DiFMUP substrate, activating peptide IRSI_2pY, 60 min at RT; read-out: SHP-2 Biochemical assay IC50. Here is the method: The inhibition of SHP2 by compounds of the invention was monitored using the surrogate substrate DiFMUP after protein activation by a peptide bearing two appropriately spaced phosphotyrosine. […] The generation of the DiFMU product by activated SHP2 was monitored through Fluorescence measurement with a PerkinElmer Envision reader.
Chain of Full length SHP2 protein (Recombinant Human SHP-2) (Q06124 2-593 limits assumed): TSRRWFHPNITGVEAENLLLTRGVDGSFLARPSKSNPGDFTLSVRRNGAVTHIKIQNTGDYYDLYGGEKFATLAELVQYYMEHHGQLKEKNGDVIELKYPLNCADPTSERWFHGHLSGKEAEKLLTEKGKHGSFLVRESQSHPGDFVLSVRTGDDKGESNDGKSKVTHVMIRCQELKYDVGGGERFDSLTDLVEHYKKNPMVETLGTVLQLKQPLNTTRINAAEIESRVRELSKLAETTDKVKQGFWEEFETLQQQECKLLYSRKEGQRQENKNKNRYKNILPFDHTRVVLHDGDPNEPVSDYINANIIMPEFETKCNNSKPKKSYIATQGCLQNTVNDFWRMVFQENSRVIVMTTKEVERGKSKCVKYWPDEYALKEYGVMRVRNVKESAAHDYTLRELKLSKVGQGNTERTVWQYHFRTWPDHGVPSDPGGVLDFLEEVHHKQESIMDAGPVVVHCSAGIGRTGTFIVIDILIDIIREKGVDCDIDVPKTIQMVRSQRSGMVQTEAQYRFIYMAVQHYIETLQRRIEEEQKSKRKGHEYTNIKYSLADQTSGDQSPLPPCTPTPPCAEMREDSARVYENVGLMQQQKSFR
The inhibitor dose response curves were analyzed with Genedata Screener.

Assay [2] concerns pERK level in MDA-MB-468 cells. Kind of assay: p-Erk cellular assay in MDA-MB-468 (Mesoscale). The conditions noted are these: 2 h incubation, read-out: pERK1/2 in MDA-MB-468 IC50. The class given is cell-based. The protocol: (§1) p-Erk Cellular Assay in MDA-MB-468 and KYSE520:
(§2) The effect of SHP2 inhibitors on pERK level was assessed using phospho-specific antibody using Mesoscale quantification platform. For measuring change in pERK levels using mesoscale, 30,000 cells of MDA MB468 and KYSE520 cells were plated in 96-well tissue culture treated plate in 175 ul volume of media. After an overnight incubation at 37° C., various SHP2 inhibitors were added in different concentration to each well maintaining duplicate wells across plates and incubated with compounds for 2 h at 37° C. followed by a wash with ice cold PBS buffer. The cells were then lysed in lysis buffer and processed and analyzed for p-ERK/ERK as per manufacturer's instructions (Mesoscale discovery, cat No. K15107D-3).

Assay [3] has as its system pERK level in KYSE520 cells. Description: p-Erk cellular assay in KYSE520 (Mesoscale). To be noted: 2 h incubation, read-out: pERK1/2 in KYSE520 IC50. Type of assay: cell-based. The protocol:
as §1, §2

In the case of `CC1(N)CCN(c2nc(N)c(-c3cccc(Cl)c3Cl)c(C(N)=O)n2)CC1` (atropisomer, axis not shown; (M)) [Compound 26, (4M)-6-Amino-2-(4-amino-4-methyl-piperidin-1-yl)-5-(2,3-dichloro-phenyl)-pyrimidine-4-carboxylic acid amide], the IC50 is greater than 10000 nM in assay [1], 8190 nM in assay [2] and greater than 10000 nM in assay [3].
Consider `CC1(N)CCN(c2nc(Cl)c(-c3cccc(Cl)c3Cl)c(C(N)=O)n2)CC1` (atropisomer, axis not shown; (P)) [Compound 79, (4P)-2-(4-amino-4-methylpiperidin-1-yl)-6-chloro-5-(2,3-dichlorophenyl)-pyrimidine-4-carboxamide], for which the IC50 was 30 nM in assay [1], 177 nM in assay [2] and 837 nM in assay [3].
For `NC[C@@]12CCC[C@@H]1CN(c1nc(N)c(-c3cccc(Cl)c3Cl)c(C(N)=O)n1)C2` (atropisomer, axis not shown; (P)) [Compound 98, (5P)-2-[(3aR,6aS)-3a-(aminomethyl)octahydrocyclopenta[c]pyrrol-2-yl]-6-amino-5-(2,3-dichlorophenyl)pyrimidine-4-carboxamide], the IC50 in assay [1] amounted to 49 nM; in assay [2] (Homo sapiens, MDA-MB-468, 2 h) it was 395 nM; in assay [3] (Homo sapiens, KYSE-520, 2 h), 1200 nM.
For the compound `C[C@@]1(N)CCCN(c2nc(N)c(-c3cccc(Cl)c3Cl)c(C(N)=O)n2)CC1` (atropisomer, axis not shown; (P)) [Compound 109, (5P)-6-amino-2-[(4R)-4-amino-4-methylazepan-1-yl]-5-(2,3-dichlorophenyl)-pyrimidine-4-carboxamide], the IC50 turned out to be 71 nM in assay [1]; 420 nM in assay [2] (Homo sapiens, MDA-MB-468, 2 h); 468 nM in assay [3] (Homo sapiens, KYSE-520, 2 h).
As for `NC[C@]12CCCC[C@H]1CN(c1nc(N)c(-c3cccc(Cl)c3Cl)c(C(N)=O)n1)C2` (single isomer, unassigned) [Compound 101], the IC50 was found to be 75 nM in assay [1]; 445 nM in assay [2] (Homo sapiens, MDA-MB-468, 2 h); 390 nM in assay [3] (Homo sapiens, KYSE-520, 2 h).
For the compound `Cc1nc(N2CCC3(CCC[C@H]3N)CC2)nc(C(N)=O)c1-c1cccc(Cl)c1Cl` (single isomer, unassigned) [Compound 114], the IC50 in assay [1] was 45 nM; in assay [2] (Homo sapiens, MDA-MB-468, 2 h) it was 316 nM; in assay [3] (Homo sapiens, KYSE-520, 2 h), 284 nM.
For `NC(=O)c1nc(N2CCC3(CCC[C@H]3N)CC2)nc(N)c1-c1cccc(Cl)c1Cl` [Compound 7, 6-amino-2-[(1R)-1-amino-8-azaspiro[4.5]decan-8-yl]-5-(2,3-dichlorophenyl)pyrimidine-4-carboxamide], in that order: 120 nM, 606 nM and 1370 nM.
Take `NC(=O)c1nc(N2CCC3(CC2)CC(F)(F)C[C@H]3N)nc(N)c1-c1cccc(Cl)c1Cl` [Compound 8, 6-amino-2-[(1R)-1-amino-3,3-difluoro-8-azaspiro[4.5]decan-8-yl]-5-(2,3-dichlorophenyl)pyrimidine-4-carboxamide]: the IC50 in assay [1] came to 200 nM; in assay [2] (Homo sapiens, MDA-MB-468, 2 h) it was 2180 nM; in assay [3] (Homo sapiens, KYSE-520, 2 h), 1510 nM.
As for `CNC(=O)c1nc(N2CCC(C)(N)CC2)nc(N)c1-c1cccc(Cl)c1Cl` [Compound 9, 6-Amino-2-(4-amino-4-methyl-piperidin-1-yl)-5-(2,3-dichlorophenyl)-pyrimidine-4-carboxylic Acid Methylamide], the IC50 was 1100 nM in assay [1]; 1500 nM in assay [2] (Homo sapiens, MDA-MB-468, 2 h); 6440 nM in assay [3] (Homo sapiens, KYSE-520, 2 h).
Turning to `NCC1CN(c2nc(N)c(-c3cccc(Cl)c3Cl)c(C(N)=O)n2)CC12CCC2` (stereo not drawn) [Compound 11, 6-amino-2-[8-(aminomethyl)-6-azaspiro[3.4]octan-6-yl]-5-(2,3-dichlorophenyl)pyrimidine-4-carboxamide], the IC50 was 590 nM in assay [1]; 1830 nM in assay [2] (Homo sapiens, MDA-MB-468, 2 h); 10200 nM in assay [3] (Homo sapiens, KYSE-520, 2 h).
On to `Cc1nc(N2CCC(C)(N)CC2)nc(C(N)=O)c1-c1cccc(Cl)c1Cl` [Compound 18, 2-(4-Amino-4-methyl-piperidin-1-yl)-5-(2,3-dichloro-phenyl)-6-methyl-pyrimidine-4-carboxylic Acid Amide], for which the IC50 is 104 nM in assay [1]; 231 nM in assay [2]; 2400 nM in assay [3] (Homo sapiens, KYSE-520, 2 h).
For `CC1(N)CCN(c2nc(N)c(-c3cccc(Cl)c3Cl)c(C(=O)NO)n2)CC1` [Compound 20, 6-Amino-2-(4-amino-4-methyl-piperidin-1-yl)-5-(2,3-dichlorophenyl)-pyrimidine-4-carboxylic Acid Hydroxyamide], the IC50 in assay [1] amounted to 150 nM; in assay [2] (Homo sapiens, MDA-MB-468, 2 h), 492 nM; in assay [3] (Homo sapiens, KYSE-520, 2 h) it was 8450 nM.
`NCC12CCCCC1CN(c1nc(N)c(-c3cccc(Cl)c3Cl)c(C(N)=O)n1)C2` (stereo not drawn) [Compound 24, 2-[3a-(aminomethyl)-octahydro-1H-isoindol-2-yl]-6-amino-5-(2,3-dichlorophenyl)pyrimidine-4-carboxamide]: the IC50 in assay [1] was 270 nM; in assay [2] (Homo sapiens, MDA-MB-468, 2 h) it was 2350 nM; in assay [3] (Homo sapiens, KYSE-520, 2 h), 7650 nM.
For `Cc1nc(NC2CCCC(N)C2)nc(C(N)=O)c1-c1cccc(Cl)c1Cl` (stereo not drawn) [Compound 28, 2-(3-Amino-cyclohexyl-amino)-5-(2,3-dichloro-phenyl)-6-methyl-pyrimidine-4-carboxylic acid amide], the IC50 came out at 360 nM in assay [1]; 1630 nM in assay [2] (Homo sapiens, MDA-MB-468, 2 h); 11500 nM in assay [3] (Homo sapiens, KYSE-520, 2 h).
As for `NC(=O)c1nc(N2CCC(N)(CO)CC2)nc(N)c1-c1cccc(Cl)c1Cl` [Compound 29, 6-amino-2-[4-amino-4-(hydroxymethyl)piperidin-1-yl]-5-(2,3-dichlorophenyl)-pyrimidine-4-carboxamide], the IC50 in assay [1] came to 260 nM; in assay [2] (Homo sapiens, MDA-MB-468, 2 h), 1170 nM; in assay [3] (Homo sapiens, KYSE-520, 2 h), 7700 nM.
For `Cc1nc(N(C)C2CCC(N)CC2)nc(C(N)=O)c1-c1cccc(Cl)c1Cl` (stereo not drawn) [Compound 32, 2-[(4-Amino-cyclohexyl)-methyl-amino]-5-(2,3-dichlorophenyl)-6-methyl-pyrimidine-4-carboxylic acid amide], the IC50 in assay [1] stood at 200 nM; in assay [2] (Homo sapiens, MDA-MB-468, 2 h) it was 736 nM; in assay [3] (Homo sapiens, KYSE-520, 2 h), 3610 nM.
With `CC1(CN)CCN(c2nc(N)c(-c3cccc(Cl)c3Cl)c(C(N)=O)n2)CC1` [Compound 41, 6-amino-2-[4-(aminomethyl)-4-methylpiperidin-1-yl]-5-(2,3-dichlorophenyl)pyrimidine-4-carboxamide], the IC50 in assay [1] amounted to 310 nM; in assay [2] (Homo sapiens, MDA-MB-468, 2 h) it was 908 nM; in assay [3] (Homo sapiens, KYSE-520, 2 h), 2990 nM.
In the case of `Cc1nc(N2CCCC(C)(N)CC2)nc(C(N)=O)c1-c1cccc(Cl)c1Cl` (stereo not drawn) [Compound 45, 2-(4-Amino-4-methyl-azepan-1-yl)-5-(2,3-dichloro-phenyl)-6-methyl-pyrimidine-4-carboxylic acid amide], the IC50 in assay [1] was determined as 170 nM; in assay [2] (Homo sapiens, MDA-MB-468, 2 h), 646 nM; in assay [3] (Homo sapiens, KYSE-520, 2 h), 2100 nM.
For `NC(=O)c1nc(N2CCCC(N)CC2)nc(N)c1-c1cccc(Cl)c1Cl` (stereo not drawn) [Compound 49, 6-amino-2-(4-aminoazepan-1-yl)-5-(2,3-dichlorophenyl)-pyrimidine-4-carboxamide], the IC50 stood at 120 nM in assay [1]; 683 nM in assay [2] (Homo sapiens, MDA-MB-468, 2 h); 2540 nM in assay [3] (Homo sapiens, KYSE-520, 2 h).
In the case of `CCCC1(N)CCN(c2nc(N)c(-c3cccc(Cl)c3Cl)c(C(N)=O)n2)CC1` [Compound 53, 6-amino-2-(4-amino-4-propylpiperidin-1-yl)-5-(2,3-dichloro-phenyl)pyrimidine-4-carboxamide], the IC50 came out at 200 nM in assay [1]; 652 nM in assay [2] (Homo sapiens, MDA-MB-468, 2 h); 1300 nM in assay [3] (Homo sapiens, KYSE-520, 2 h).
`Cc1nc(N2CCC(C)(N)CC2)nc(C(N)=O)c1-c1ccnc(Cl)c1Cl` [Compound 81, 2-(4-Amino-4-methyl-piperidin-1-yl)-5-(2,3-dichloro-pyridin-4-yl)-6-methyl-pyrimidine-4-carboxylic acid amide]: the IC50 in assay [1] was determined as 720 nM; in assay [2] (Homo sapiens, MDA-MB-468, 2 h), 1720 nM; in assay [3] (Homo sapiens, KYSE-520, 2 h), 11300 nM.
`Cc1nc(N2CCC3(CC2)CO[C@@H](C)[C@H]3N)nc(C(N)=O)c1-c1cccc(Cl)c1Cl` [Compound 85, 2-[(3S,4S)-4-amino-3-methyl-2-oxa-8-azaspiro[4.5]decan-8-yl]-5-(2,3-dichlorophenyl)-6-methylpyrimidine-4-carboxamide]: the IC50 in assay [1] was 48 nM; in assay [2] (Homo sapiens, MDA-MB-468, 2 h), 407 nM; in assay [3] (Homo sapiens, KYSE-520, 2 h) it was 1240 nM.
Regarding `CN(c1nc(N)c(-c2cccc(Cl)c2Cl)c(C(N)=O)n1)[C@H]1CC[C@H](N)CC1` [Compound 112, 6-Amino-2-[(4-amino-cyclohexyl)-methyl-amino]-5-(2,3-dichloro-phenyl)-pyrimidine-4-carboxylic acid amide], the IC50 in assay [1] is 66 nM; in assay [2] (Homo sapiens, MDA-MB-468, 2 h) it was 670 nM; in assay [3] (Homo sapiens, KYSE-520, 2 h), 596 nM.

These data come from patent publication US11033547B2, “Carboxamide-pyrimidine derivatives as SHP2 antagonists” (Merck Patent GmbH, priority 2019, dated 2021).
